Assay results from patent US10278948B1, “Method for transnasal delivery of anticonvulsant and therapeutic treatments” (priority 2015, dated 2019).
Read-outs that look alike come from different tables or passages of the source.

How the values were obtained:
[1] = Transnasal administration of topiramate to the sphenopalatine ganglion in human patients (Example 1); assay type: in vivo
Excerpt: The devices and methods described above were applied to the treatment of human patients for headache pain, when the inventor observed a dramatic effect with regard to treating obesity and promoting weight-loss. The results of this testing are surprising and unexpected in view of efficacy of the very low dosages administered as compared to published treatment regimens using topiramate without any co-delivered medicament for the treatment of obesity. […] The method of treatment was as follows: Topiramate was dissolved in sterile water to a concentration of 5 mg/mL. Then, 0.3 mL of this solution (1.5 mg of topiramate) per nostril was administered transnasally to the sphenopalatine ganglion using a Tx360® nasal applicator (from Tian Medical of Lombard, Ill.) in the manner described above with reference to the devices shown in FIGS. 6-11B and the relative distal-end anatomic positioning described with reference to FIGS. 4-5. This dosage was administered once per week for four weeks. Each patient lost between 5% and 10% of his/her body weight over the four-week period. […] It is expected that dosage may be effective for headache pain and for promoting weight loss as treatment for obesity at a frequency from once or twice per day to once per month when administered at […] delivered as about 0.2-0.3 mL per nostril toward the SPG. Although this sample is very small, it compares highly favorably to published studies using topiramate for weight loss, and the effective dosage was surprising far lower than the effective dosages reported in the literature. As a first example, in Obesity Review 2011 May; 12(5):e338-47. doi: 10.1111/j.1467-789X.2010.00846.x. Epub 2011 Mar. 28. Efficacy and safety of topiramate on weight loss: a meta-analysis of randomized controlled trials, ten clinical studies (3320 individuals) were evaluated, each of which was a randomized controlled study with at least 16 weeks of duration that reported the effect of topiramate on weight loss and adverse events using topiramate at 96-200 mg/day. […] Although the etiology is not apparent, a highly reasonable hypothesis is that the side effects and lack thereof, respectively, may be related to the significant dosage difference and/or administration mode (96-200 mg/day perorally versus 3 mg/week transnasally).

[2] = cited from earlier work; for mean percent weight loss from baseline to week 24: placebo −2.6%
[3] = 96-200 mg/day perorally, at least 16 weeks, ten clinical studies (3320 individuals); cited from earlier work
[4] = cited from earlier work
[5] = every patient, after the first dosage, 3 mg transnasally to the SPG

## CC1(C)O[C@@H]2[C@@H](CO[C@@]3(COS(N)(=O)=O)OC(C)(C)O[C@@H]23)O1 [topiramate, 2,3:4,5-bis-O-(1-methylethylidene)-β-D-fructopyranose sulfamate]
[1]; 3 mg/week transnasally to the SPG
  side effects (paresthesia, taste impairment and psychomotor disturbances) reported by patients: none of which was reported by patients in the presently-reported example
[1]; all patients, 3 mg/week transnasally to the SPG
  regular headache pain (patient-reported): reduced in frequency and severity
[1]; [5]
  craving for food, nicotine, and alcohol (patient-reported): immediate reduction of craving for food, nicotine, and alcohol
  satiety (needing less food intake to feel full; patient-reported): improved satiety
[1]; human patients, 1.5 mg per nostril (3 mg) transnasally to the SPG once per week for four weeks
  patients with effective weight loss: 100%
[2]; 64 mg/day topiramate group
  mean percent weight loss from baseline to week 24: −5.0%
[2]; 96 mg/day topiramate group
  mean percent weight loss from baseline to week 24: −4.8%
[2]; 192 mg/day topiramate group
  mean percent weight loss from baseline to week 24: −6.3%
[2]; 384 mg/day topiramate group
  mean percent weight loss from baseline to week 24: −6.3%
[2]; 64-384 mg daily, 24 weeks
  most frequent adverse events: paresthesia, somnolence, and difficulty with memory, concentration, and attention
  percentages of patients who lost at least 5% or 10% of body weight compared with placebo: Greater percentages of topiramate-treated patients lost at least 5% or 10% of body weight compared with placebo
[3]
  frequently observed side effects: paresthesia, taste impairment and psychomotor disturbances
[4]
  solubility in water: up to 9.8 mg/mL
